Test results as given in patent publication US20110092463A1, “COMBINATION FOR USE IN THE TREATMENT OF INFLAMMATORY DISORDERS” (priority 2008, published 2011).

Tested on: human macrophage cell-line MonoMac-6 (MM6)
Assay: PMA-induced release of tumor necrosis factor (TNF) from MonoMac-6 cells, Human TNF-α ELISA
Format: cell-based
Conditions: n=2; for TNF concentration as % of the untreated PMA-stimulated control MM6 cells: 48 hours, PMA 10 ng/mL five hours, mean; for mean TNF concentration after PMA stimulation: 48 hours treatment, then PMA 10 ng/mL five hours, untreated control 75.3 pg/mL
Procedure: Cells from the human macrophage cell-line MonoMac-6 (MM6) (Ziegler-Heitbrock et al, Int. J. Cancer, 41, 456 (1988)) were cultured (37° C./5% CO2) in RPMI-1640 medium supplemented with 1 mM sodium pyruvate, 1× nonessential amino acids, 10 μg/mL insulin, 1 mM oxalacetic acid, 100 units/mL penicillin, 100 μg/mL streptomycin and 10% (v/v) fetal bovine serum. At the start of the experiment, MM6 cells were seeded in 96-well plates at a density of 1×10^5 cells/mL (200 μL per well). The MM6 cells were treated (incubation conditions as above) with indicated final concentrations of the test drugs for 48 hours prior stimulation with phorbol-12-myristate-13-acetate (PMA; Sigma-Aldrich, Stockholm, Sweden) followed by measurement of PMA-induced release of tumor necrosis factor (TNF) (see below for details). To stimulate formation and release of TNF, the MM6 cells were incubated (37° C./5% CO2) for five hours (in RPMI-1640 with 10% fetal bovine serum with supplements as above) with PMA at a final concentration of 10 ng/mL. After spinning down the cells after the different MM6 incubations/stimulations (see above and below), the concentrations of TNF in the supernatants were quantitated using Human TNF-α ELISA Kit from Mabtech (Nacka, Sweden) according to instructions supplied by the manufacturer. Stock solutions of pemirolast (potassium salt; purchased from American Custom Chemicals Corporation, San Diego, USA) and losartan (potassium salt; purchased from AK Scientific, Inc., Mountain View, Calif., USA) were made in sterile saline. […] However, after five hours of PMA stimulation, the mean TNF concentration in the supernatants of untreated MM6 cells was 75.3 pg/mL (n=2).

[1] = 0.1 μM of each drug (alone or in combination)
[2] = 1 μM of each drug (alone or in combination)
[3] = 10 μM of each drug (alone or in combination)
[4] = 100 μM of each drug (alone or in combination)

SMILES | TNF concentration as % of the untreated PMA-stimulated control MM6 cells [1] | mean TNF concentration after PMA stimulation (0.1 μM test drug) | TNF concentration as % of the untreated PMA-stimulated control MM6 cells [2] | mean TNF concentration after PMA stimulation (1 μM test drug) | TNF concentration as % of the untreated PMA-stimulated control MM6 cells [3] | mean TNF concentration after PMA stimulation (10 μM test drug) | TNF concentration as % of the untreated PMA-stimulated control MM6 cells [4] | mean TNF concentration after PMA stimulation (100 μM test drug)
Cc1cccn2c(=O)c(-c3nnn[nH]3)cnc12 [pemirolast] | 88% | 66.5 pg/mL | 85% | 64.0 pg/mL | 72% | 54.3 pg/mL | 96% | 72.2 pg/mL
CCCCc1nc(Cl)c(CO)n1Cc1ccc(-c2ccccc2-c2nn[nH]n2)cc1 [losartan] | 98% | 73.8 pg/mL | 90% | 67.5 pg/mL | 99% | 74.5 pg/mL | 119% | 89.8 pg/mL
